Source: patent publication US6376480B1, “Vitamin D derivatives with substituents at C-25, process for their production, intermediate products and use for the production of pharmaceutical agents” (Schering Aktiengesellschaft, priority 1995, dated 2002)

How the values were obtained:
HL 60 cells [1] = test: differentiation induction of HL 60 cells to macrophages (NBT reduction); format: cell-based, human; conditions: DR = test substance dose/calcitriol dose for comparable semi-maximum effects; 96 hours incubation
Experimental: It is known in the literature (Mangelsdorf, D. J. et al., J. Cell. Biol. 98: 391-398 (1984)), that the treatment of human leukemia cells (promyelocyte cell line HL 60) in vitro with calcitriol induces the differentiation of cells to macrophages.
HL 60 cells are cultivated in tissue culture medium (RPMI 10% fetal calf serum) at 37° C. in an atmosphere of 5% CO2 in air.
For substance testing, the cells are centrifuged off, and 2.0×10^5 cells/ml in phenol red-free tissue culture medium is taken up. The test substances are dissolved in ethanol and diluted with tissue culture medium without phenol red to the desired concentration. The dilution stages are mixed with the cell suspension at a ratio of 1:10, and 100 μl each of this cell suspension that is mixed with substance is pipetted into an indentation of a 96-hole plate. For control, a cell suspension is mixed analogously with the solvent.
After incubation for 96 hours at 37° C. in 5% CO2 in air, 100 μl of an NBT-TPA solution (nitro blue tetrazolium (NBT), final concentration in the batch of 1 mg/ml, tetradecanoyl phorbolmyristate-13-acetate (TPA), final concentration in the batch of 2×10^−7 mol/l) is pipetted into each indentation of the 96-hole plate in the cell suspension.
By incubation for 2 hours at 37° C. and 5% CO2 in air, NBT is reduced to insoluble formazan because of the intracellular oxygen radical release, stimulated by TPA, in the cells that are differentiated to macrophages.
To complete the reaction, the indentations of the 96-hole plate are suctioned off, and the cells are affixed to the bottom of the plate by adding methanol and dried after affixing. To dissolve the intracellular formazan crystals that are formed, 100 μl of potassium hydroxide (2 mol/l) and 100 μl of dimethyl sulfoxide are pipetted into-each indentation and ultrasonically treated for 1 minute. The concentration of formazan is measured by spectrophotometry at 650 nm.
As a yardstick for the differentiation induction of HL 60 cells to macrophages, the concentration of formed formazan applies.

healthy male rats = test: acute hypercalcemic action after one-time subcutaneous administration; format: in vivo, rat; conditions: DR = test substance dose/calcitriol dose for comparable effects, serum-calcium
Experimental: To determine the acute hypercalcemic action of various calcitriol derivatives, the test that is described below is carried out:
The action of control (solution base), reference substance (1,25(OH)2—D3=calcitriol) and test substance is tested in each case after one-time subcutaneous administration in groups of 10 healthy male rats (140-170 g). During the testing time, the rats are kept in special cages to determine the excretion of water and mineral substances. Urine is collected in 2 fractions (0-16 hours and 16-22 hours). An oral dose of calcium (0.1 mmol of calcium in 6.5% alpha-hydroxypropylcellulose, 5 ml/animal) replaces at 1600 hours the calcium intake that is lacking by food deprivation. At the end of the test, the animals are killed by decapitation and exsanguinated to determine the serum-calcium values. For the primary screen test in vivo, an individual standard dose (200 μg/kg) is tested. For selected substances, the result is supported by establishing a dose-effect relation.
A hypercalcemic action is shown in serum-calcium level values that are higher than in the control.
The significance of differences between substance groups and controls and between test substance and reference substance are supported with suitable statistical processes.

calcitriol receptor = molecular target: T1, calcitriol receptor (Sus scrofa, UniProt A3RGC1); test: calcitriol-receptor test (competition with 3H-calcitriol); conditions: quotient of concentrations of test substance and calcitriol for 50% competition, receptor protein from intestines of juvenile pigs
T1 sequence (A3RGC1 1-427): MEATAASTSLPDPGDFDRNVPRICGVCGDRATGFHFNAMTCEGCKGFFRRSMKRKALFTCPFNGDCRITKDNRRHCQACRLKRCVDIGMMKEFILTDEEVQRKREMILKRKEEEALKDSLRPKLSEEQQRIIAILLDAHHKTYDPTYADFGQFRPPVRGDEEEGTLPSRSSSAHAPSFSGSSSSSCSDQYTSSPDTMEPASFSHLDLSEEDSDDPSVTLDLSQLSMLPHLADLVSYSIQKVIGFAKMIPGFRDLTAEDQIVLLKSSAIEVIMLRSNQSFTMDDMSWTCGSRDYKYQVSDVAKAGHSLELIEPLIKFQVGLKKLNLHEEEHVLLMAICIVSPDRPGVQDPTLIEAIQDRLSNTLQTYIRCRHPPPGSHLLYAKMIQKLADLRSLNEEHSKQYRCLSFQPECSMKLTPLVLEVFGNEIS
Experimental: The vitamin D activity of the substances according to the invention is determined with the aid of the calcitriol-receptor test. It is carried out with use of a specific receptor protein from the intestines of juvenile pigs.
Then, the samples are centrifuged at 10,000×g for 5 minutes at 4° C. The supernatant is decanted and measured in a β-counter after 1 hour of equilibration in Picofluor 15™.
The competition curves that are obtained with various concentrations of test substance as well as of reference substance (unlabeled calcitriol) at constant concentration of the reference substance (^3H-calcitriol) are placed in relation to one another and a competition factor (KF) is determined.
It is defined as a quotient of the concentrations of the respective test substance and the reference substance, which are necessary for 50% competition: [formula]

HL 60 cells [2] = test: antagonism of the action of calcitriol in HL 60 cells; format: cell-based, human

Structure (SMILES)	dose ratio for hypercalcemia (healthy male rats)	Competition Factor KF for Receptor Bonding (calcitriol receptor)	Dose Ratio for Differentiation Induction in HL 60 Cells (HL 60 cells [1])	antagonism of the action of calcitriol in HL 60 cells (HL 60 cells [2])
C=C1/C(=C\C=C2/CCC[C@]3(C)[C@@H]([C@H](C)CCCC(C)(C)O)CC[C@@H]23)C[C@@H](O)C[C@@H]1O [Calcitriol, 1α,25-dihydroxy vitamin D3, reference compound]	1	–	1	–
C=C1/C(=C\C=C2/CCC[C@]3(C)[C@@H]([C@H](C)/C=C/[C@@H](O)C4(C(=O)C(C)(C)C)CC4)CC[C@@H]23)C[C@@H](O)C[C@@H]1O [Compound 15b, (5Z,7E,22E)-(1S,3R,24R)-25-(2,2-Dimethyl-1-oxopropyl)-26,27-cyclo-9,10-secocholesta-5,7,10(19),22-tetraene-1,3,24-triol]	300	6	1.1	–
C=C1/C(=C\C=C2/CCC[C@]3(C)[C@@H]([C@H](C)/C=C/[C@@H](O)C4(C(=O)C#CCCC)CC4)CC[C@@H]23)C[C@@H](O)C[C@@H]1O [Compound 19b, (5Z,7E,22E)-(1S,3R,24R)-25-(1-Oxo-2-hexinyl)-26,27-cyclo-9,10-secocholesta-5,7,10(19),22-tetraene-1,3,24-triol]	> 300	2	1.5	–

Further lines, with some results ahead:

dose ratio for hypercalcemia (healthy male rats)	Competition Factor KF for Receptor Bonding (calcitriol receptor)	Structure (SMILES)	Dose Ratio for Differentiation Induction in HL 60 Cells (HL 60 cells [1])	antagonism of the action of calcitriol in HL 60 cells (HL 60 cells [2])
300	1	C=C1C(=CC=C2CCCC3(C)C2CCC3C(C)C=CC(O)C2(C(C)=O)CC2)CC(O)CC1O [Compound 7b, (5Z,7E,22E)-(1S,3R,24R)-25-Acetyl-26,27-cyclo-9,10-secocholesta-5,7,10(19),22-tetraene-1,3,24-triol]	0.5	–
100	2	C=C1/C(=C\C=C2/CCC[C@]3(C)[C@@H]([C@H](C)/C=C/[C@@H](O)C4(C(=O)CCC)CC4)CC[C@@H]23)C[C@@H](O)C[C@@H]1O [Compound 8b, (5Z,7E,22E)-(1S,3R,24R)-25-(1-oxobutyl)-26,27-cyclo-9,10-secocholesta-5,7,10(19),22-tetraene-1,3,24-triol]	0.9	–
–	3.5	CCCCCCC(=O)C1([C@@H](O)/C=C/[C@@H](C)[C@H]2CC[C@H]3/C(=C/C=C4C[C@@H](O)C[C@H](O)C4)CCC[C@]23C)CC1 [Compound 64a, (7E,22E)-(1R,3R,24S)-25-(1-Oxoheptyl)-26,27-cyclo-19-nor-9,10-secocholesta-5,7,22-triene-1,3,24-triol]	120	antagonize the action of calcitriol
–	3	CCCCCC(=O)C1([C@H](O)/C=C/C(C)(C)[C@H]2CC[C@H]3/C(=C/C=C4C[C@@H](O)C[C@H](O)C4)CCC[C@]23C)CC1 [Compound 87b, (7E,22E)-(1R,3R,24R)-20-methyl-25-(1-oxohexyl)-26,27-cyclo-19-nor-9,10-secocholesta-5,7,22-triene-1,3,24-triol]	116	antagonize the action of calcitriol
